The record followed here is ChEMBL document CHEMBL3867428, “Eremophilane Sesquiterpenes from an Endophytic Fungus Periconia Species” (J Nat Prod, 2016).

Experiment [1] can be described thus: Cytotoxicity against human MCF7 cells assessed as reduction in cell viability after 96 hrs by MTT assay. The format is functional, cell-based. As to conditions: MCF7, 96 h. (Formazan colour is commonly taken as a measure of viable cells.)
In experiment [2] the test system is Human immunodeficiency virus 1. The experiment can be described thus: Antiviral activity against VSV-G pseudotyped HIV1 infected in human SupT1 cells after 48 hrs by luciferase reporter gene assay. The format is functional, cell-based. As to conditions: Human immunodeficiency virus 1, SUP-T1, 48 h.
Experiment [3] in a line: Cytotoxicity against human HeLa cells assessed as reduction in cell viability after 96 hrs by MTT assay. The format is functional, cell-based.
Experiment [4] is described as follows: Antiinflammatory activity in […] cells assessed as inhibition of LPS-induced NO production at 1 uM preincubated with compound followed by LPS stimulation after 24 hrs. As to conditions: Mus musculus, BV-2. The format is functional.

Usually IC50 stands for the concentration that gives 50% inhibition. On to `C=C(C)[C@@]1(O)C[C@@]2(C)C(=C[C@@H]1O)C=CC(=O)[C@H]2C`, for which the IC50 in experiment [1] was found to be 17.9 µM.
`C[C@H]1C(=O)C=CC2=C[C@@H](O)[C@H](O)C[C@@]21C`: the IC50 in experiment [2] was found to be 11 µM; in experiment [3] it was 16.5 µM.
By inhibition is commonly meant the relative decrease from the control value, in per cent. With `C=C(C)[C@]1(O)C[C@@]2(C)C(=C[C@H]1O)C=CC(=O)[C@@H]2C`, in experiment [4], the inhibition at 1 µM was 10.2%.
Same read-out and setting: for `C=C(C)[C@@H]1C[C@@]2(C)C(=C[C@@H](O)[C@H](O)[C@@H]2C)[C@@H](O)[C@H]1O` the value was 18.3%.
Same read-out and setting: with `C[C@@H]1C(=O)C=CC2=C[C@@H](O)[C@H](O)C[C@@]21C` the figure was 16.1%.
The same measure, in the same setting: with `COc1cc(/C=C/C(=O)CC(=O)/C=C/c2ccc(O)c(OC)c2)ccc1O` [CURCUMIN] the figure was 12.9%.
In the case of `CC(=O)O[C@H]1C(=O)[C@@]2(C)[C@H]([C@H](OC(=O)c3ccccc3)[C@]3(O)C[C@H](OC(=O)[C@H](O)[C@@H](NC(=O)c4ccccc4)c4ccccc4)C(C)=C1C3(C)C)[C@]1(OC(C)=O)CO[C@@H]1C[C@@H]2O` [PACLITAXEL], the IC50 in experiment [1] worked out at 0.0002 µM; in experiment [3], 0.0064 µM.
